# Measured values: patent publication US20170051149A1, “AZOARYLS AS REVERSIBLY MODULATABLE TUBULIN INHIBITORS” (ECOLE NORMALE SUPERIEURE DE LYON, priority 2014, published 2017)
# Columns and labels:
# [1] = UV-Vis absorption spectra of trans and cis isomers (λstrong, εE, λiso); type: physicochemical
# [2] = tested on: MDA-MB-231 cells; experiment: cell cycle analysis by PI flow cytometry; type: cell-based
# Protocol: (§1) The effect of compound I.1 on cell cycle progression was assessed by flow cytometry. Briefly, following the application of compound I.1 and exposure to the indicated light regime, cells were harvested on ice and incubated in a hypotonic buffer [0.1% sodium citrate, 0.1% Triton X-100 and 50 μg/mL propidium iodide (PI)] for 30 min at 4° C. Following the PI staining cells were analysed by flow cytometry using FACSCalibur flow cytometer (Becton Dickinson, Heidelberg, Germany) and Cell Quest Pro Software (Becton Dickinson). Subsequently the cell cycle analysis was performed using the FlowJo software (Tree Star Inc., Ashland, Oreg., USA).
# [3] = tested on: HEK-293; experiment: cell cycle analysis by PI flow cytometry; type: cell-based; details: 30 h
# Protocol: as §1
# [4] = tested on: HeLa; experiment: cell cycle analysis by PI flow cytometry; type: cell-based; details: 30 h
# Protocol: as §1
# [5] = fluorophore moiety range above 510 nm, PBS pH = 7.4, 20% MeCN
# [6] = 10 nM, 390 nm (150 ms every 30 s), 48 h
# [7] = 20 nM, 390 nm (150 ms every 30 s), 48 h
# [8] = 50 nM, 390 nm (150 ms every 30 s), 48 h
# [9] = 100 nM, 390 nm (150 ms every 30 s), 48 h
# [10] = 400 nM, 390 nm (150 ms every 30 s), 48 h
# [11] = 600 nM, 390 nm (150 ms every 30 s), 48 h
# [12] = 800 nM, 390 nm (150 ms every 30 s), 48 h
# [13] = 1 μM, 390 nm (150 ms every 30 s), 48 h
# [14] = 2 μM, 390 nm (150 ms every 30 s), 48 h
# [15] = 5 μM, 390 nm (150 ms every 30 s), 48 h
# [16] = 200 nM, 390 nm (1 s every 15 min)
# [17] = 600 nM, 390 nm (1 s every 15 min)
# [18] = 1.5 μM, 390 nm (1 s every 15 min)
# [19] = 5 μM, 390 nm (1 s every 15 min)
smiles,measurement,setting,value
"CCN(CC)c1ccc2c(-c3ccccc3C(=O)N3CCN(CCCOc4c(N=Nc5cc(OC)c(OC)c(OC)c5)ccc(OC)c4C)CC3)c3ccc(=[N+](CC)CC)cc-3oc2c1.CCN(CC)c1ccc2c(-c3ccccc3C(=O)N3CCN(CCCOc4c(N=Nc5cc(OC)c(OC)c(OC)c5)ccc(OC)c4C)CC3)c3ccc(=[N+](CC)CC)cc-3oc2c1.O=C[O-].O=C[O-] [I.25, N-(6-(diethylamino)-9-(2-(4-(3-(3-methoxy-2-methyl-6-((3,4,5-trimethoxyphenyl)diazenyl)phenoxy)propyl)piperazine-1-carbonyl)phenyl)-3H-xanthen-3-ylidene)-N-ethylethanaminium bis(formate) salt]",εE(λstrong),"[1]; PBS pH = 7.4, 20% MeCN",15300 M⁻¹ cm⁻¹
same,λiso,"[1]; PBS pH = 7.4, 20% MeCN",460 nm
same,λstrong,"[1]; PBS pH = 7.4, 20% MeCN",375 nm
same,εE(λstrong),[1]; [5],(66600) M^−1cm^−1
same,λstrong,[1]; [5],(565) nm
same,λiso,"[1]; fluorophore moiety range, A(λ > 510) invariant upon photoswitching",(510 ff) nm
"COc1ccc(N=Nc2cc(OC)c(OC)c(OC)c2)cc1O [I.1, 2-methoxy-5-((3,4,5-trimethoxyphenyl)diazenyl)phenol]",εE(λstrong),"[1]; PBS pH = 6, 20% MeCN",17100 M⁻¹ cm⁻¹
same,λiso,"[1]; PBS pH = 6, 20% MeCN",465 nm
same,λstrong,"[1]; PBS pH = 6, 20% MeCN",380 nm
same,εE(λstrong),"[1]; PBS pH = 7.4, 20% MeCN",17700 M⁻¹ cm⁻¹
same,λiso,"[1]; PBS pH = 7.4, 20% MeCN",470 nm
same,λstrong,"[1]; PBS pH = 7.4, 20% MeCN",375 nm
same,% G1,[2]; [6],74.6%
same,% G2,[2]; [6],1.9%
same,% S,[2]; [6],17.1%
same,mean % G2/M phase,[2]; [6],1.9%
same,mean % G2/M phase,"[2]; 10 nM, 390 nm + 515 nm (rescue), 48 h",0.8%
same,mean % G2/M phase,"[2]; 10 nM, 515 nm (500 ms every 30 s), 48 h",1.1%
same,% G1,[2]; [7],79.5%
same,% G2,[2]; [7],2.5%
same,% S,[2]; [7],18.0%
same,% G1,[2]; [8],77.1%
same,% G2,[2]; [8],1.8%
same,% S,[2]; [8],18.0%
same,% G1,[2]; [9],76.6%
same,% G2,[2]; [9],2.0%
same,% S,[2]; [9],18.5%
same,mean % G2/M phase,[2]; [9],2.0%
same,mean % G2/M phase,"[2]; 100 nM, 390 nm + 515 nm (rescue), 48 h",0.9%
same,mean % G2/M phase,"[2]; 100 nM, 515 nm (500 ms every 30 s), 48 h",1.2%
same,mean % G2/M phase,"[2]; 200 nM, 390 nm (1 s every 15 min), 30 h",8.2%
same,mean % G2/M phase,"[2]; 200 nM, dark, 30 h",14.3%
same,% G1,[2]; [10],53.1%
same,% G2,[2]; [10],15.1%
same,% S,[2]; [10],27.6%
same,mean % G2/M phase,[2]; [10],15.1%
same,mean % G2/M phase,"[2]; 400 nM, 390 nm + 515 nm (rescue), 48 h",6.4%
same,mean % G2/M phase,"[2]; 400 nM, 515 nm (500 ms every 30 s), 48 h",8.2%
same,mean % G2/M phase,"[2]; 600 nM, 390 nm (1 s every 15 min), 30 h",16.3%
same,% G1,[2]; [11],18.0%
same,% G2,[2]; [11],42.6%
same,% S,[2]; [11],31.0%
same,mean % G2/M phase,[2]; [11],42.6%
same,mean % G2/M phase,"[2]; 600 nM, 390 nm + 515 nm (rescue), 48 h",17.3%
same,mean % G2/M phase,"[2]; 600 nM, 515 nm (500 ms every 30 s), 48 h",21.7%
same,mean % G2/M phase,"[2]; 600 nM, dark, 30 h",12.8%
same,% G1,[2]; [12],9.5%
same,% G2,[2]; [12],54.2%
same,% S,[2]; [12],27.5%
same,mean % G2/M phase,[2]; [12],54.2%
same,mean % G2/M phase,"[2]; 800 nM, 390 nm + 515 nm (rescue), 48 h",24.7%
same,mean % G2/M phase,"[2]; 800 nM, 515 nm (500 ms every 30 s), 48 h",32.5%
same,% G1,[2]; [13],5.5%
same,% G2,[2]; [13],52.9%
same,% S,[2]; [13],27.6%
same,mean % G2/M phase,[2]; [13],52.9%
same,mean % G2/M phase,"[2]; 1 μM, 390 nm + 515 nm (rescue), 48 h",22.3%
same,mean % G2/M phase,"[2]; 1 μM, 515 nm (500 ms every 30 s), 48 h",28.4%
same,mean % G2/M phase,"[2]; 1.5 μM, 390 nm (1 s every 15 min), 30 h",40.6%
same,mean % G2/M phase,"[2]; 1.5 μM, dark, 30 h",13.1%
same,% G1,[2]; [14],4.8%
same,% G2,[2]; [14],60.1%
same,% S,[2]; [14],26.4%
same,mean % G2/M phase,"[2]; 5 μM, 390 nm (1 s every 15 min), 30 h",49.4%
same,% G1,[2]; [15],5.0%
same,% G2,[2]; [15],70.2%
same,% S,[2]; [15],23.9%
same,mean % G2/M phase,"[2]; 5 μM, dark, 30 h",13.8%
same,mean % G2/M phase,[3]; [16],19.0%
same,mean % G2/M phase,"[3]; 200 nM, dark",20.2%
same,mean % G2/M phase,[3]; [17],19.4%
same,mean % G2/M phase,"[3]; 600 nM, dark",21.2%
same,mean % G2/M phase,[3]; [18],65.3%
same,mean % G2/M phase,"[3]; 1.5 μM, dark",21.1%
same,mean % G2/M phase,[3]; [19],71.5%
same,mean % G2/M phase,"[3]; 5 μM, dark",24.6%
same,mean % G2/M phase,[4]; [16],26.2%
same,mean % G2/M phase,"[4]; 200 nM, dark",23.5%
same,mean % G2/M phase,[4]; [17],33.7%
same,mean % G2/M phase,"[4]; 600 nM, dark",24.8%
same,mean % G2/M phase,[4]; [18],59.9%
same,mean % G2/M phase,"[4]; 1.5 μM, dark",27.1%
same,mean % G2/M phase,[4]; [19],68.7%
same,mean % G2/M phase,"[4]; 5 μM, dark",28.4%
